Laboratory results from PubChem BioAssay AID180 (DTP/NCI, 2004).
Where “and” joins values, the source holds several entries; their conditions need not be identical. Equal entries are not always repeated.

Tested on: BDF1 mice, Adenocarcinoma 755 s.c., tumor weight T/C
Experiment: NCI In Vivo Anticancer Drug Screen. Data for tumor model Adenocarcinoma 755 (subcutaneous) in B6D2F1 (BDF1) mice
Settings: endpoint: mean tumor weight, schedule: Q01DX011 (ip), higher = larger tumour
Protocol: The antitumor activity of compounds was measured in mice bearing transplantable tumors. Survival or tumor size were measured and the results are expressed as the measurement made in the treated group (T) divided by the measurement made in the vehicle treated control group (C). The tumor model used in this assay is Adenocarcinoma 755 (subcutaneous) in B6D2F1 (BDF1) mice

[1] = dose: 1.0 mg/kg/injection, vehicle: saline

For `Nc1nc(=S)c2[nH]cnc2[nH]1`, the T/C (dose: 0.01 mg/kg/injection, vehicle: saline) was 113 % of control, the T/C (dose: 0.03 mg/kg/injection, vehicle: saline) was 81 % of control and the T/C (dose: 0.06 mg/kg/injection, vehicle: saline) was 88 % of control. For the same compound, the T/C (dose: 0.07 mg/kg/injection, vehicle: alkali diluted with saline) was 74 % of control, the T/C (dose: 0.07 mg/kg/injection, vehicle: methylcellulose (MC)) was 28 % of control and the T/C (dose: 0.12 mg/kg/injection, vehicle: carboxymethylcellulose (CMC)) was 112 % of control. For the same compound, the T/C (dose: 0.12 mg/kg/injection, vehicle: saline) was 66 % of control, the T/C (dose: 0.13 mg/kg/injection, vehicle: alkali diluted with saline) was 95 % of control and the T/C (dose: 0.13 mg/kg/injection, vehicle: other) was 91 % of control. For the same compound, the T/C (dose: 0.13 mg/kg/injection, vehicle: saline) was 7 % of control, the T/C (dose: 0.18 mg/kg/injection, vehicle: carboxymethylcellulose (CMC)) was 32 % of control and the T/C (dose: 0.2 mg/kg/injection, vehicle: methylcellulose (MC)) was 39 % of control. For the same compound, the T/C (dose: 0.24 mg/kg/injection, vehicle: carboxymethylcellulose (CMC)) was 77 % of control, the T/C (dose: 0.25 mg/kg/injection, vehicle: alkali diluted with saline) was 53 % of control and the T/C (dose: 0.25 mg/kg/injection, vehicle: distilled water + alcohol) was 7 % of control. For the same compound, the T/C (dose: 0.25 mg/kg/injection, vehicle: methylcellulose (MC)) was 4 % of control and 11 % of control and 15 % of control, the T/C (dose: 0.25 mg/kg/injection, vehicle: other) was 32 % of control and the T/C (dose: 0.35 mg/kg/injection, vehicle: carboxymethylcellulose (CMC)) was 9 % of control. For the same compound, the T/C (dose: 0.4 mg/kg/injection, vehicle: methylcellulose (MC)) was 12 % of control, the T/C (dose: 0.47 mg/kg/injection, vehicle: carboxymethylcellulose (CMC)) was 34 % of control and the T/C (dose: 0.5 mg/kg/injection, vehicle: alkali diluted with saline) was 4 % of control. For the same compound, the T/C (dose: 0.5 mg/kg/injection, vehicle: distilled water + alcohol) was 7 % of control, the T/C (dose: 0.5 mg/kg/injection, vehicle: other) was 8 % of control and the T/C (dose: 0.5 mg/kg/injection, vehicle: saline) was 8 % of control. The T/C (dose: 0.7 mg/kg/injection, vehicle: carboxymethylcellulose (CMC)) was 7 % of control, the T/C (dose: 0.94 mg/kg/injection, vehicle: carboxymethylcellulose (CMC)) was 30 % of control and the T/C (dose: 1.0 mg/kg/injection, vehicle: alkali diluted with saline) was 1 % of control. For the same compound, the T/C (dose: 1.0 mg/kg/injection, vehicle: carboxymethylcellulose (CMC)) was 1 % of control and 2 % of control, the T/C (dose: 1.0 mg/kg/injection, vehicle: distilled water + alcohol) was 2 % of control and the T/C (dose: 1.0 mg/kg/injection, vehicle: other) was 3 % of control. For the same compound, the T/C [1] was 2 % of control and 8 % of control, the T/C (dose: 1.4 mg/kg/injection, vehicle: carboxymethylcellulose (CMC)) was 5 % of control and the T/C (dose: 1.5 mg/kg/injection, vehicle: methylcellulose (MC)) was 4 % of control. For the same compound, the T/C (dose: 2.0 mg/kg/injection, vehicle: alkali diluted with saline) was 1 % of control, the T/C (dose: 2.0 mg/kg/injection, vehicle: carboxymethylcellulose (CMC)) was 1 % of control and the T/C (dose: 2.0 mg/kg/injection, vehicle: other) was 2 % of control. For the same compound, the T/C (dose: 2.0 mg/kg/injection, vehicle: saline) was 3 % of control and 7 % of control, the T/C (dose: 3.0 mg/kg/injection, vehicle: methylcellulose (MC)) was 3 % of control and the T/C (dose: 4.0 mg/kg/injection, vehicle: carboxymethylcellulose (CMC)) was 1 % of control. The T/C (dose: 4.0 mg/kg/injection, vehicle: methylcellulose (MC)) was 3 % of control, the T/C (dose: 4.0 mg/kg/injection, vehicle: other) was 1 % of control and the T/C (dose: 46.0 micrograms/kg/injection, vehicle: carboxymethylcellulose (CMC)) was 72 % of control. For the same compound, the T/C (dose: 49.0 micrograms/kg/injection, vehicle: carboxymethylcellulose (CMC)) was 118 % of control, the T/C (dose: 58.0 micrograms/kg/injection, vehicle: carboxymethylcellulose (CMC)) was 91 % of control and the T/C (dose: 62.0 micrograms/kg/injection, vehicle: carboxymethylcellulose (CMC)) was 77 % of control. For the same compound, the T/C (dose: 77.0 micrograms/kg/injection, vehicle: carboxymethylcellulose (CMC)) was 54 % of control, the T/C (dose: 82.0 micrograms/kg/injection, vehicle: carboxymethylcellulose (CMC)) was 69 % of control and the T/C (dose: 90.0 micrograms/kg/injection, vehicle: methylcellulose (MC)) was 32 % of control. For the same compound, the T/C (dose: 93.0 micrograms/kg/injection, vehicle: carboxymethylcellulose (CMC)) was 28 % of control, the T/C (dose: 116.0 micrograms/kg/injection, vehicle: carboxymethylcellulose (CMC)) was 12 % of control and 36 % of control and the T/C (dose: 140.0 micrograms/kg/injection, vehicle: carboxymethylcellulose (CMC)) was 11 % of control. The T/C (dose: 155.0 micrograms/kg/injection, vehicle: carboxymethylcellulose (CMC)) was 6 % of control, the T/C (dose: 175.0 micrograms/kg/injection, vehicle: carboxymethylcellulose (CMC)) was 4 % of control and the T/C (dose: 187.0 micrograms/kg/injection, vehicle: methylcellulose (MC)) was 11 % of control. For the same compound, the T/C (dose: 232.0 micrograms/kg/injection, vehicle: carboxymethylcellulose (CMC)) was 13 % of control, the T/C (dose: 233.0 micrograms/kg/injection, vehicle: carboxymethylcellulose (CMC)) was 2 % of control and 5 % of control and the T/C (dose: 350.0 micrograms/kg/injection, vehicle: carboxymethylcellulose (CMC)) was 3 % of control and 4 % of control. The T/C (dose: 375.0 micrograms/kg/injection, vehicle: methylcellulose (MC)) was 9 % of control, the T/C (dose: 490.0 micrograms/kg/injection, vehicle: carboxymethylcellulose (CMC)) was 5 % of control and the T/C (dose: 750.0 micrograms/kg/injection, vehicle: methylcellulose (MC)) was 4 % of control. The T/C (dose: 980.0 micrograms/kg/injection, vehicle: carboxymethylcellulose (CMC)) was 4 % of control, the T/C (dose: 1500.0 micrograms/kg/injection, vehicle: methylcellulose (MC)) was 3 % of control and the T/C (dose: 3000.0 micrograms/kg/injection, vehicle: methylcellulose (MC)) was 4 % of control.
For `OC(CN1CCCCC1)c1ccc(/C=C/c2ccc(Cl)cc2)cc1` (stereo unspecified), the T/C (dose: 118.0 micrograms/kg/injection, vehicle: methylcellulose (MC)) was 40 % of control, the T/C (dose: 237.0 micrograms/kg/injection, vehicle: methylcellulose (MC)) was 55 % of control and the T/C (dose: 475.0 micrograms/kg/injection, vehicle: methylcellulose (MC)) was 49 % of control.
For `CC(C)Sc1nc(N)nc2nc[nH]c12`, the T/C [1] was 41 % of control, the T/C (dose: 1.6 mg/kg/injection, vehicle: methylcellulose (MC)) was 16 % of control and the T/C (dose: 3.0 mg/kg/injection, vehicle: saline) was 41 % of control. For the same compound, the T/C (dose: 3.1 mg/kg/injection, vehicle: methylcellulose (MC)) was 11 % of control, the T/C (dose: 6.0 mg/kg/injection, vehicle: saline) was 30 % of control and the T/C (dose: 6.25 mg/kg/injection, vehicle: methylcellulose (MC)) was 2 % of control. For the same compound, the T/C (dose: 12.0 mg/kg/injection, vehicle: saline) was 37 % of control, the T/C (dose: 12.5 mg/kg/injection, vehicle: methylcellulose (MC)) was 1 % of control and the T/C (dose: 25.0 mg/kg/injection, vehicle: saline) was 17 % of control. For the same compound, the T/C (dose: 50.0 mg/kg/injection, vehicle: saline) was 4 % of control, the T/C (dose: 100.0 mg/kg/injection, vehicle: saline) was 7 % of control and the T/C (dose: 125.0 micrograms/kg/injection, vehicle: saline) was 76 % of control. The T/C (dose: 250.0 micrograms/kg/injection, vehicle: saline) was 77 % of control, the T/C (dose: 500.0 micrograms/kg/injection, vehicle: saline) was 52 % of control and the T/C (dose: 1000.0 micrograms/kg/injection, vehicle: saline) was 80 % of control.
